From patent publication US10065990B2, “Cyclic peptide compound, and preparation method, pharmaceutical composition and use thereof” (HANGZHOU GUANYU BIO-MEDICAL CO., LTD, priority 2013, dated 2018)
Read-outs that look alike come from different tables or passages of the source.

Legend:
[1] = test system: KBM5-T315I (human chronic myelogenous leukemia); experiment: MTT cancer cell growth inhibition; assay type: cell-based; conditions: Homo sapiens, 72 h, MTT, 72 hours incubation, KBM5-T315I cells; read-out: GI50 KBM5-T315I
Text: (§1) MTT assay principle is yellow MTT can penetrate membrane into the cell, succinic dehydrogenase of the mitochondria in living cells can make exogenous MTT reduction of insoluble in water of blue-violet acicular formazan for crystallization and deposition in the cell, crystallization can be dissolved dimethyl sulfoxide (DMSO) solution, detected its absorbance at 490 nm/570 nm wavelength by enzyme-linked immunosorbent assay, which can reflect the number of cells.
(§2) Using DMEM+10% FBS culture medium or using 1640+10% FBS culture, respectively.
(§3) a) Cells were seeded in 96-well plates with the inoculation of 1500/well, 190 μl/hole, 37° C., 5% of CO2 incubator overnight;
(§4) b) The next day each well was added 10 μl of different drugs. The final concentration of drug was 10^−5˜10^−10M, three parallel holes; 37° C., 5% CO2 culture incubator for 72 hours incubation;
(§5) c) Per well was added 20 μl 5 mg/ml of MTT, 37° C., 5% CO2 culture incubator for 4 hours incubation;
(§6) d) The supernatant was discarded. Each well was added 100 μl of DMSO and oscillation;
(§7) e) 570 nm readings. Calculate cell viability. GI50 calculation based on the results.

[2] = test system: HT1080 (human fibrosarcoma cells); experiment: MTT cancer cell growth inhibition; assay type: cell-based; conditions: Homo sapiens, HT-1080, 72 h, MTT, 72 hours incubation, read-out: GI50 HT1
Text: as §1, §2, §3, §4, §5, §6, §7

[3] = test system: MCF-7 (human breast cancer cells); experiment: MTT cancer cell growth inhibition; assay type: cell-based; conditions: Homo sapiens, MCF7, 72 h, 72 hours incubation, read-out: GI50 MCF
Text: as §1, §2, §3, §4, §5, §6, §7

[4] = test system: KBM-5 (human chronic myelogenous leukemia); experiment: MTT cancer cell growth inhibition; assay type: cell-based; conditions: Homo sapiens, KBM5, 72 h, MTT, 72 hours incubation, KBM-5 cells; read-out: GI50 KBM-5
Text: as §1, §2, §3, §4, §5, §6, §7

[5] = test system: SGC-7901 (human gastric cancer cells); experiment: MTT cancer cell growth inhibition; assay type: cell-based; conditions: Homo sapiens, SGC-7901, 72 h, MTT, 72 hours incubation, SGC-7901 cells; read-out: GI50 SGC-7901
Text: as §1, §2, §3, §4, §5, §6, §7

[6] = test system: MOLT-4 (human acute lymphoblastic leukemia cells); experiment: MTT cancer cell growth inhibition; assay type: cell-based; conditions: Homo sapiens, MOLT-4, 72 h, MTT, 72 hours incubation, read-out: GI50 Mol
Text: as §1, §2, §3, §4, §5, §6, §7

[7] = test system: BGC-823 (human gastric cancer cells); experiment: MTT cancer cell growth inhibition; assay type: cell-based; conditions: Homo sapiens, BGC-823, 72 h, MTT, 72 hours incubation, read-out: GI50 BG
Text: as §1, §2, §3, §4, §5, §6, §7

[8] = test system: Huh-7 (human hepatoma cells); experiment: MTT cancer cell growth inhibition; assay type: cell-based; conditions: Homo sapiens, Huh-7, 72 h, MTT, 72 hours incubation, Huh-7 cells; read-out: GI50 Huh-7
Text: as §1, §2, §3, §4, §5, §6, §7

[9] = test system: U937 (human leukemia cells); experiment: MTT cancer cell growth inhibition; assay type: cell-based; conditions: Homo sapiens, U-937, 72 h, MTT, 72 hours incubation, read-out: GI50 U93
Text: as §1, §2, §3, §4, §5, §6, §7

[10] = test system: DU145 (human prostate cancer cells); experiment: MTT cancer cell growth inhibition; assay type: cell-based; conditions: Homo sapiens, DU-145, 72 h, MTT, 72 hours incubation, read-out: GI50 Du1
Text: as §1, §2, §3, §4, §5, §6, §7

[11] = test system: lncap (prostate cancer cells); experiment: MTT cancer cell growth inhibition; assay type: cell-based; conditions: Homo sapiens, LNCaP, 72 h, MTT, 72 hours incubation, read-out: GI50 lnca
Text: as §1, §2, §3, §4, §5, §6, §7

[12] = test system: H1975 (non-small cell lung adenocarcinoma); experiment: MTT cancer cell growth inhibition; assay type: cell-based; conditions: Homo sapiens, NCI-H1975, 72 h, MTT, 72 hours incubation, H1975 cells; read-out: GI50 H1975
Text: as §1, §2, §3, §4, §5, §6, §7

[13] = test system: HCC827 (human non-small cell lung cancer cells); experiment: MTT cancer cell growth inhibition; assay type: cell-based; conditions: Homo sapiens, HCC827, 72 h, MTT, 72 hours incubation, HCC827 cells; read-out: GI50 HCC827
Text: as §1, §2, §3, §4, §5, §6, §7

[14] = test system: A549 (human lung cancer cells); experiment: MTT cancer cell growth inhibition; assay type: cell-based; conditions: Homo sapiens, A549, 72 h, MTT, 72 hours incubation, read-out: GI50 A54
Text: as §1, §2, §3, §4, §5, §6, §7

[15] = test system: PANC-1 (Pac-1, human pancreatic cancer cells); experiment: MTT cancer cell growth inhibition; assay type: cell-based; conditions: Homo sapiens, PANC-1, 72 h, MTT, 72 hours incubation, read-out: GI50 PAN
Text: as §1, §2, §3, §4, §5, §6, §7

[16] = test system: MDA-MB-231 (breast cancer cells); experiment: MTT cancer cell growth inhibition; assay type: cell-based; conditions: Homo sapiens, MDA-MB-231, 72 h, read-out: GI50 MDA-MB-231, MTT, 72 hours incubation, MDA-MB-231 cells
Text: as §1, §2, §3, §4, §5, §6, §7

[17] = test system: N-87 (human gastric cancer cells); experiment: MTT cancer cell growth inhibition; assay type: cell-based; conditions: Homo sapiens, 72 h, MTT, 72 hours incubation, N-87 cells; read-out: GI50 N-87
Text: as §1, §2, §3, §4, §5, §6, §7

[18] = test system: Hela (human cervical cancer cells); experiment: MTT cancer cell growth inhibition; assay type: cell-based; conditions: Homo sapiens, HeLa, 72 h, MTT, 72 hours incubation, read-out: GI50 Hela
Text: as §1, §2, §3, §4, §5, §6, §7

[19] = test system: K562 (human leukemia cells); experiment: MTT cancer cell growth inhibition; assay type: cell-based; conditions: Homo sapiens, K562, 72 h, MTT, 72 hours incubation, K562 cells; read-out: GI50 K562
Text: as §1, §2, §3, §4, §5, §6, §7

[20] = test system: Bel-7402 (human hepatoma cells); experiment: MTT cancer cell growth inhibition; assay type: cell-based; conditions: Homo sapiens, Bel-7402, 72 h, MTT, 72 hours incubation, Bel-7402 cells; read-out: GI50 Bel-7402
Text: as §1, §2, §3, §4, §5, §6, §7

HDAC7 = molecular target: T1, HDAC7 (Homo sapiens, UniProt Q8WUI4); experiment: HDAC biochemical activity measurement (fluorescent substrate deacetylation);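 on all read-outs here: fluorogenic deacetylation assay using acetyl-lysine substrate at 20 µM, enzyme and compound incubated 30 min at 37 °C, then developer added, fluorescence read at 360/460 nm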; conditions: for IC50 HDAC7: 37° C. 30 minutes
T1 sequence (Q8WUI4 1-952): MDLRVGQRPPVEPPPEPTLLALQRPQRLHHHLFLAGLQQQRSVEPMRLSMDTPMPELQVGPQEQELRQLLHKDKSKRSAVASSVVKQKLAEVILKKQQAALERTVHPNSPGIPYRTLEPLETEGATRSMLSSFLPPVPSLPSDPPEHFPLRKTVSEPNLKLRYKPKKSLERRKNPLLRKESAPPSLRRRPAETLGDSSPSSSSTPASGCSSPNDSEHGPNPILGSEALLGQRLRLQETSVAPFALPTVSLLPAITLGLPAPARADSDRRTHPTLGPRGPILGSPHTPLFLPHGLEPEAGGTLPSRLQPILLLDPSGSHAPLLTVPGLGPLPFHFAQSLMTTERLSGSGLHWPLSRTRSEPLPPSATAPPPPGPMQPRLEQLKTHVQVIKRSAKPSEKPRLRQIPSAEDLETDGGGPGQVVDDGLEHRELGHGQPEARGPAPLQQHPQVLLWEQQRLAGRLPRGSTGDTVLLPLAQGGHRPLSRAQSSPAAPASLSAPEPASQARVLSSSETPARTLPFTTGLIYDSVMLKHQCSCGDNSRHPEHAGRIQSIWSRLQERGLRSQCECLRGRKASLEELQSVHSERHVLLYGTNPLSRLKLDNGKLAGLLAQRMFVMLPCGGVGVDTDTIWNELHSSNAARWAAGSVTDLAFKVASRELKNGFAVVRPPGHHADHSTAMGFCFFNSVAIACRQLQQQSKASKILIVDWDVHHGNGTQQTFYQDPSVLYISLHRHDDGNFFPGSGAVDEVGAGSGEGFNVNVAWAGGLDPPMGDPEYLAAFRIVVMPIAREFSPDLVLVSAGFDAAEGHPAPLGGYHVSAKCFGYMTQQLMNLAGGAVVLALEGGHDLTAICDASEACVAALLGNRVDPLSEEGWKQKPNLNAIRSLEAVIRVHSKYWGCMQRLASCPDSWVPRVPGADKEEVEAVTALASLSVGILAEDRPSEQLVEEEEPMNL
Method: The chemical activity of the compound is determined according to the degree of deacetylation inhibition of the HDAC enzyme. This experiment measured the degree of deacetylation related to tumor proliferation and metastasis of HDAC1, HDAC2, HDAC3, HDAC8, HDAC11 five subtypes HDAC enzymes. After the substrate containing an acetylated lysine side chain and HDAC enzyme are labeled with a fluorescent label, the fluorescent substrate is de acetyl. The fluorescent labeled substrate is cleaved by the enzyme, and the fluorescent substance is released, which generates 460 nm emission light under the excitation of 360 nm light.
HDAC substrate was diluted with reaction buffer to 200M (reaction concentration of 20M), the HDAC enzyme was diluted to the appropriate concentration, then added different concentrations of the test compounds and acted at 37° C. 30 minutes, and then added the same volume of 2-times concentration substrate developing solution (developer), incubated at room temperature for 15 minutes. Finally, the last reading measured with a microplate plate reader, excitation light was 360 nm, the emitted light was 460 nm, data processing software was Prime 4, and the results are shown in Table 1.

SMILES	GI50 [1]	GI50 ([2]; HT1080 cells)	GI50 ([3]; MCF-7 cells)	GI50 [4]	GI50 [5]	GI50 ([6]; MOLT-4 cells)	GI50 ([7]; BGC-823 cells)	GI50 [8]	GI50 ([9]; U937 cells)	GI50 ([10]; DU145 cells)	GI50 ([11]; lncap cells)	GI50 [12]	GI50 [13]	GI50 ([14]; A549 cells)	GI50 ([15]; PANC-1 cells)	GI50 [16]	GI50 [17]	GI50 [19]	GI50 [20]	IC50 HDAC7 (HDAC7)	other results
C/C=C1\NC(=O)c2nc(ccc2SC)CNC(=O)C[C@@H](/C=C/CCSC(C)=O)OC(=O)[C@H](Cc2cccc3ccccc23)NC1=O [Compound 198]	43 nM	20 nM	110 nM	99 nM	16 nM	20 nM	70 nM	47 nM	50 nM	50 nM	90 nM	31 nM	57 nM	50 nM	30 nM	45 nM	38 nM	79 nM	63 nM	no activity	GI50 ([18]; Hela cells): 30 nM
C/C=C1\NC(=O)c2cc(SCC)cc(n2)CNC(=O)C[C@@H](/C=C/CCSC(=O)CCCCC)OC(=O)[C@H](C(C)C)NC1=O [Compound 254]	42 nM	60 nM	50 nM	53 nM	87 nM	40 nM	60 nM	46 nM	40 nM	60 nM	10 nM	18 nM	35 nM	40 nM	10 nM	81 nM	64 nM	78 nM	31 nM		GI50 ([18]; Hela cells): 40 nM; IC50 (μM) HDAC7 (HDAC7): no activity
C/C=C1\NC(=O)c2nccc(n2)CNC(=O)C[C@@H](/C=C/CCS)OC(=O)[C@H](C)NC1=O [Compound 144]	127 nM			11 nM	41 nM			23 nM				38 nM	12 nM			37 nM	29 nM	11 nM	35 nM	no activity	GI50 [2]: 70 nM; GI50 [3]: 60 nM; GI50 [6]: 70 nM; GI50 [7]: 70 nM; GI50 [9]: 70 nM; GI50 [10]: 60 nM; GI50 [11]: 50 nM; GI50 [14]: 70 nM; GI50 [15]: 70 nM; GI50 [18]: 50 nM
C/C=C1\NC(=O)c2nc(ccc2SCC)CNC(=O)C[C@@H](/C=C/CCSC(=O)CCCCCCC)OC(=O)[C@H](C(C)C)NC1=O [Compound 247]	45 nM	60 nM	50 nM	32 nM	65 nM	30 nM	10 nM	53 nM	70 nM	20 nM	20 nM	32 nM	41 nM	60 nM	50 nM	38 nM	23 nM	33 nM	95 nM	no activity	GI50 ([18]; Hela cells): 50 nM
C/C=C1\NC(=O)c2nc(ccc2F)CNC(=O)C[C@@H](/C=C/CCS)OC(=O)[C@H](CCCCNC(=O)OCC2c3ccccc3-c3ccccc32)NC1=O [Compound 120]	33 nM			45 nM	84 nM			71 nM				35 nM	55 nM			16 nM	53 nM	23 nM	66 nM	no activity	GI50 [2]: 10 nM; GI50 [3]: 100 nM; GI50 [6]: 20 nM; GI50 [7]: 30 nM; GI50 [9]: 10 nM; GI50 [10]: 50 nM; GI50 [11]: 30 nM; GI50 [14]: 50 nM; GI50 [15]: 100 nM; GI50 [18]: 30 nM
C/C=C1\NC(=O)c2cc(F)cc(n2)CNC(=O)C[C@@H](/C=C/CCS)OC(=O)[C@H](Cc2cccc3ccccc23)NC1=O [Compound 125]	58 nM			64 nM	39 nM			25 nM				36 nM	29 nM			75 nM	31 nM	47 nM	57 nM	no activity	GI50 [2]: 40 nM; GI50 [3]: 60 nM; GI50 [6]: 110 nM; GI50 [7]: 30 nM; GI50 [9]: 50 nM; GI50 [10]: 30 nM; GI50 [11]: 110 nM; GI50 [14]: 60 nM; GI50 [15]: 120 nM; GI50 [18]: 50 nM
